In patent US7259004B1, “Endophytic streptomycetes from higher plants with biological activity” (Montana State University, priority 2002, dated 2007):
Converted amounts (≈) assume the structure as drawn.

What was measured:
Candida albicans = test: microbroth dilution MIC
Aspergillus fumigatus = test: microbroth dilution MIC
Cryptococcus neoformans = test: microbroth dilution MIC
[1] = test system: Plasmodium falciparum strain CSC-1 (Honduras); test: antimalarial assay, 3H-phenylalanine radiobioassay in human red blood cells; conditions: for IC50 Plasmodium falciparum: human red blood cells, 3H-phenylalanine, standard deviation of the mean, three experiments
[2] = test system: Human Cervical Cancer Epithelial ME180; test: CellTiter 96 Aqueous Non-Radioactive Cell Proliferation Assay; type: cell-based; conditions: 48 hours, Table 7
Method: (§1) The munumbicins were then tested against three human cancer cell lines (ATCC) and human primary mammary epithelial cells (HMECs) (Clonetics; Biowhittaker, Walkersville, Md.) using a CellTiter 96® Aqueous Non-Radioactive Cell Proliferation Assay kit from Promega (Madison, Wis.). The cell lines were A-549 (lung epithelial carcinoma, ATCC CCL-185), ME-180 (cervical epithelial epidermoid carcinoma, ATCC HTB-33), and BT-20 (breast epithelial cancer, ATCC HTB-19), and were grown in the media recommended by ATCC. The primary mammary cells were cultured as recommended by the manufacturer in mammary epithelial cell growth media (MEGM®). […] After seeding, the cells were incubated for five hours at 37° C. before addition of the munumbicins. Two-fold serial dilutions of the munumbicins were made in the culture medium, and a volume equal to that of the seeded cells for each dilution was added to three wells of cells. Each plate also contained some wells with cells plus medium only and some wells with medium only. […] The A-549 and ME-180 cells were incubated for 48 hours. […] The plates were incubated at 37° C. for one to four hours, and the OD490 was determined. The OD reading of all wells was corrected for background by subtracting the reading of wells containing medium only. […] Kakadumycin A was tested against three human cancer cell lines (ATCC) and human primary mammary epithelial cells using the procedure described above for the munumbicins. Kadadumycin B was tested against one human cancer cell line.

[3] = test system: Human Lung Cancer Epithelial A549; test: as above; type: cell-based; conditions: 48 hours, Table 7
Method: as §1

[4] = test system: Saccharomyces cerevisiae ATCC 9763; test: disk diffusion assay; type: cell-based; conditions: A3-5-1 10 micrograms; Flucytosine 10 micrograms; RPMI-glucose agar 35° C.
[5] = test system: Candida albicans ATCC 90028; test: disk diffusion assay; type: cell-based; as to diameter of the zone of inhibition, Candida albicans ATCC 90028: key: R = resistant
[6] = test system: Candida tropicalis ATCC 750; test: disk diffusion assay; type: cell-based; as to diameter of the zone of inhibition, Candida tropicalis ATCC 750: key: R = resistant
[7] = test system: Candida glabrata ATCC 2001; test: disk diffusion assay; type: cell-based; as to diameter of the zone of inhibition, Candida glabrata ATCC 2001: key: R = resistant
Candida krusei ATCC 6258 = test: disk diffusion assay; type: cell-based
[8] = test system: Candida parasilosis ATCC 22019; test: disk diffusion assay; type: cell-based, Candida parapsilosis; as to diameter of the zone of inhibition, Candida parasilosis ATCC 22019: key: R = resistant
[9] = test system: Candida parasdosis ATCC 90018; test: disk diffusion assay; type: cell-based, Candida parapsilosis; as to diameter of the zone of inhibition, Candida parasdosis ATCC 90018: key: R = resistant
[10] = test system: Cryptococcus neoformans ATCC 32045; test: disk diffusion assay; type: cell-based; conditions: A3-5-1 10 micrograms; Flucytosine 10 micrograms; RPMI-glucose agar 35° C.
[11] = test system: Candida albicans ATCC 24433; test: disk diffusion assay; type: cell-based; as to diameter of the zone of inhibition, Candida albicans ATCC 24433: key: R = resistant
[12] = test system: RNA synthesis in Bacillus subtilis; test: macromolecular synthesis whole cell assay, [3H]uridine incorporation; type: cell-based; conditions: 1×MIC
[13] = test system: Cell wall synthesis in Bacillus subtilis; test: macromolecular synthesis whole cell assay, [3H]N-acetyl glucosamine incorporation; type: cell-based; conditions: 1×MIC
B. subtilis 1A757 = test: microbe, parasite or virus in culture; type: cell-based, Bacillus subtilis
[14] = test system: M. tuberculosis H37Rv (ATCC 25618) (drug sensitive); test: IC50 in Mycobacteria 7H11 agar; type: cell-based, Mycobacterium tuberculosis; conditions: Mycobacterium tuberculosis; 7H11 agar with 10% OADC
[15] = test system: Enterococcus faecium ATCC 49624; test: disk diffusion assay; type: cell-based; conditions: 10 micrograms per disk; ciprofloxacin 5, vancomycin 30 micrograms per disk; 35° C.
[16] = test system: Enterococcus faecium ATCC 51559; test: disk diffusion assay; type: cell-based; conditions: 10 micrograms per disk; ciprofloxacin 5, vancomycin 30 micrograms per disk; 35° C.
Rhizoctonia solani = test: microbroth dilution MIC, plant associated microorganisms; type: cell-based; conditions: PD broth, 48 hours at 23° C.
Method: (§2) Incubation was for 48 hours at 23° C. A plant pathogenic strain of Pseudomonas syringae was also tested using the same PD broth medium and with concentrations of colony forming units as given above. The organisms were obtained from the Montana State University plant pathogen culture collection administered by Dr. […] The relative activities against plant pathogenic fungi ranged from a few tenths of a microgram up to thirty micrograms. Table 2 provides the results of tests of inhibitory activity of the munumbicins against various plant-pathogenic fungi and one pathogenic bacterium. The data are reported as MIC values in micrograms/ml.

Pseudomonas syringae = test: as above; type: cell-based; conditions: PD broth
Method: as §2

Pythium ultimum = test: as above; type: cell-based; conditions: PD broth, 48 hours at 23° C.
Method: as §2

Phytophthora cinnamomi = test: as above; type: cell-based; conditions: PD broth, 48 hours at 23° C.
Method: as §2

Geotrichum candidum = test: as above; type: cell-based; conditions: PD broth, 48 hours at 23° C.
Method: as §2

Sclerotinia sclerotiorum = test: as above; type: cell-based; conditions: PD broth, 48 hours at 23° C.
Method: as §2

[17] = test system: Enterococcus faecalis ATCC 51299; test: disk diffusion assay; type: cell-based; conditions: 10 micrograms per disk; ciprofloxacin 5, vancomycin 30 micrograms per disk; 35° C.
[18] = test system: Enterococcus faecalis ATCC 29212; test: disk diffusion assay; type: cell-based; conditions: 10 micrograms per disk; ciprofloxacin 5, vancomycin 30 micrograms per disk; 35° C.
[19] = test system: Escherichia coli ATCC 25922; test: disk diffusion assay; type: cell-based; conditions: 10 micrograms per disk; penicillin G 10 units per disk; 35° C. Also: key: R = resistant.
[20] = test system: Neisseria gonnorhea ATCC 49226; test: disk diffusion assay; type: cell-based; conditions: 10 micrograms per disk; ciprofloxacin 5, vancomycin 30 micrograms per disk; GC agar with 1% growth supplement with 5% CO2
[21] = test system: Staphylococcus aureus ATCC 29213; test: disk diffusion assay; type: cell-based; conditions: 10 micrograms per disk; ciprofloxacin 5, vancomycin 30 micrograms per disk; 35° C.
[22] = test system: Acinetobacter sp. ATCC 49137; test: disk diffusion assay; type: cell-based; conditions: 10 micrograms per disk; ciprofloxacin 5, vancomycin 30 micrograms per disk; grown at 30° C.
S. epidermis ATCC 12228 = test: disk diffusion assay; type: cell-based, Staphylococcus epidermidis; conditions: 10 micrograms per disk; 35° C.
brine shrimp = brine shrimp assays; conditions: preliminary assays
[23] = test system: Staphyloccus aureus MH II Eli Lilly Co.; test: microbroth dilution MIC; conditions: drug sensitive strain
[24] = test system: Pseudomonas aeruginosa ATCC 27853; test: disk diffusion assay; type: cell-based; conditions: 10 micrograms per disk; ciprofloxacin 5, vancomycin 30 micrograms per disk; 35° C. Also: key: R = resistant.
[25] = test system: S. maltophilia ATCC 13637; test: disk diffusion assay; type: cell-based, Stenotrophomas maltophilia; conditions: 10 micrograms per disk; 35° C.
[26] = test system: Streptococcus pneumoniae ATCC 49619; test: disk diffusion assay; type: cell-based; conditions: 10 micrograms per disk; ciprofloxacin 5, vancomycin 30 micrograms per disk; MHA with 5% dsb. and 5% CO2
Vibrio fischeri PIC 345 = test: disk diffusion assay; type: cell-based; conditions: 10 micrograms per disk; ciprofloxacin 5, vancomycin 30 micrograms per disk; 35° C.
[27] = test system: Shigella dysenteriae ATCC 11835; test: disk diffusion assay; type: cell-based; conditions: 10 micrograms per disk; 35° C.
[28] = test system: Human Primary Mammary Epithelial HMEC; test: CellTiter 96 Aqueous Non-Radioactive Cell Proliferation Assay; type: cell-based; conditions: 48 hours; Table 7
Method: as §1

[29] = test system: Human Breast Cancer Epithelial BT-20; test: as above; type: cell-based; conditions: 96-144 hours; Table 7
Method: as §1

[30] = A3-5-1 10 micrograms, Flucytosine 10 micrograms, RPMI-glucose agar 35° C.

For C[C@@H]1[C@H](O)[C@@H](C)/C=C/C=C/C=C/C=C/C=C/C=C/C=C/[C@H](O[C@@H]2O[C@H](C)[C@@H](O)[C@H](N)[C@@H]2O)C[C@@H]2O[C@](O)(C[C@@H](O)C[C@@H](O)[C@H](O)CC[C@@H](O)C[C@@H](O)CC(=O)O[C@H]1C)C[C@H](O)[C@H]2C(=O)O [Amphotericin B, reference compound], the “MIC Candida albicans” value (Candida albicans) was 1.25 micrograms/ml, the “MIC Aspergillus fumigatus” value (Aspergillus fumigatus) was 0.62 micrograms/ml and the “MIC Cryptococcus neoformans” value (Cryptococcus neoformans) was 0.13 micrograms/ml.

In the case of CCN(CC)CCCC(C)Nc1ccnc2cc(Cl)ccc12 (stereo not drawn) [Chloroquine, reference compound], the IC50 ([1]; Plasmodium falciparum, Erythrocyte, read-out: IC50 Plasmodium falciparum) is reported as 7 ng/mL (≈ 0.0219 µM) and the “IC50 Plasmodium falciparum” value [1] is reported as 7.0 ± 0 ng/mL (≈ 0.0219 µM).

CC[C@H]1OC(=O)[C@H](C)[C@@H](O[C@H]2C[C@@](C)(OC)[C@@H](O)[C@H](C)O2)[C@H](C)[C@@H](O[C@@H]2O[C@H](C)C[C@H](N(C)C)[C@H]2O)[C@](C)(O)C[C@@H](C)C(=O)[C@H](C)[C@@H](O)[C@]1(C)O [Erythromycin, reference compound] showed an IC50 ([2]; Homo sapiens, ME-180, read-out: IC50 Human Cervical Cancer Epithelial ME180) of over 40 µg/mL and an IC50 ([3]; Homo sapiens, A549, read-out: IC50 Human Lung Cancer Epithelial A549) of over 40 µg/mL.

With Nc1[nH]c(=O)ncc1F [Flucytosine, reference compound] the “Disk Diffusion, Saccharomyces cerevisiae 9763” value [4] was 50 mm, the “Disk Diffusion, Candida albicans 90028” value [5, 30] was 37 mm and the “Disk Diffusion, Candida tropicalis 750” value [6, 30] was 47 mm. The “Disk Diffusion, Candida glabrata 2001” value [7, 30] was 53 mm, the “Disk Diffusion, Candida krusei 6258” value (Candida krusei ATCC 6258; [30]) was 7 mm and the “Disk Diffusion, Candida parapsilosis 22019” value [8, 30] was 46 mm. The “Disk Diffusion, Candida parapsilosis 90018” value [9, 30] was 57 mm, the “Disk Diffusion, Cryptococcus neoformans 32045” value [10] was 42 mm and the “Disk Diffusion, Candida albicans 24433” value [11, 30] was 20 mm.

In the case of CO[C@H]1/C=C/O[C@@]2(C)Oc3c(C)c(O)c4c(O)c(c(/C=N/N5CCN(C)CC5)c(O)c4c3C2=O)NC(=O)/C(C)=C\C=C\[C@H](C)[C@H](O)[C@@H](C)[C@@H](O)[C@@H](C)[C@H](OC(C)=O)[C@@H]1C [Rifampicin, reference compound], the “% [3H]uridine (RNA synthesis) incorporation of that of the untreated culture” value ([12]; 5 min) is reported as 13%, the “% [3H]uridine (RNA synthesis) incorporation of that of the untreated culture” value ([12]; 10 min) is reported as 15% and the “% [3H]N-acetyl glucosamine (Cell wall synthesis) incorporation of that of the untreated culture” value ([13]; 5 min) is reported as 47%. The “% [3H]N-acetyl glucosamine (Cell wall synthesis) incorporation of that of the untreated culture” value ([13]; 10 min) was 48%, the “1×MIC against Bacillus subtilis” value (B. subtilis 1A757) was 0.25 micrograms/ml and the IC50 [14] was under 1 µg/mL.

Penicillin was tested, and the “diameter of the zone of inhibition, Enterococcus faecium ATCC 49624” value [15] was 21 mm and the “diameter of the zone of inhibition, Enterococcus faecium ATCC 51559” value [16] was 0 mm.

In the case of munumbicin D, the “MIC Rhizoctonia solani” value (Rhizoctonia solani) is reported as 15.6 micrograms/ml, the “MIC Pseudomonas syringae” value (Pseudomonas syringae) is reported as 0.2 micrograms/ml and the “MIC Pythium ultimum” value (Pythium ultimum) is reported as 0.4 micrograms/ml. The “MIC Phytophthora cinnamomi” value (Phytophthora cinnamomi) was 15.6 micrograms/ml, the “MIC Geotrichum candidum” value (Geotrichum candidum) was 31.2 micrograms/ml and the “MIC Sclerotinia sclerotiorum” value (Sclerotinia sclerotiorum) was 2.0 micrograms/ml. For the same compound, the “diameter of the zone of inhibition, Enterococcus faecalis ATCC 51299” value [17] was 16 mm, the “diameter of the zone of inhibition, Enterococcus faecalis ATCC 29212” value [18] was 16 mm and the “diameter of the zone of inhibition, Candida albicans ATCC 90028” value ([5]; 10 micrograms per disk, 35° C.) was “R”. The “diameter of the zone of inhibition, Escherichia coli ATCC 25922” value [19] was “R”, the “diameter of the zone of inhibition, Neisseria gonnorhea ATCC 49226” value [20] was 9 mm and the “diameter of the zone of inhibition, Candida tropicalis ATCC 750” value ([6]; 10 micrograms per disk, 35° C.) was “R”. For the same compound, the “diameter of the zone of inhibition, Staphylococcus aureus ATCC 29213” value [21] was 13 mm, the “MIC Candida albicans” value (Candida albicans) was over 10 micrograms/ml and the “diameter of the zone of inhibition, Acinetobacter sp. ATCC 49137” value [22] was “R”. The “diameter of the zone of inhibition, Candida glabrata ATCC 2001” value ([7]; 10 micrograms per disk, 35° C.) was “R”, the “diameter of the zone of inhibition, S. epidermis ATCC 12228” value (S. epidermis ATCC 12228) was 14 mm and the LC50 brine shrimp (brine shrimp) was 1.7 micrograms/ml. The “MIC Aspergillus fumigatus” value (Aspergillus fumigatus) was 20 micrograms/ml, the “diameter of the zone of inhibition, Candida krusei ATCC 6258” value (Candida krusei ATCC 6258; 10 micrograms per disk, 35° C.) was “R” and the “MIC Staphyloccus aureus MH II Eli Lilly Co.” value [23] was 0.4 micrograms/ml. The “diameter of the zone of inhibition, Pseudomonas aeruginosa ATCC 27853” value [24] was “R”, the “diameter of the zone of inhibition, Candida parasilosis ATCC 22019” value ([8]; 10 micrograms per disk, 35° C.) was “R” and the “diameter of the zone of inhibition, S. maltophilia ATCC 13637” value [25] was “R”. The “MIC Cryptococcus neoformans” value (Cryptococcus neoformans) was 10 micrograms/ml, the “IC50 Plasmodium falciparum” value [1] was 4.5 ± 0.7 ng/mL and the “diameter of the zone of inhibition, Streptococcus pneumoniae ATCC 49619” value [26] was 16 mm. For the same compound, the “diameter of the zone of inhibition, Vibrio fischeri PIC 345” value (Vibrio fischeri PIC 345) was 12 mm, the “diameter of the zone of inhibition, Shigella dysenteriae ATCC 11835” value [27] was “R” and the “IC50 Human Cervical Cancer Epithelial ME180” value [2] was 0.2 micrograms/ml. The “IC50 Human Primary Mammary Epithelial HMEC” value [28] was 0.425 micrograms/ml, the “IC50 Human Breast Cancer Epithelial BT-20” value [29] was 0.07 micrograms/ml and the “IC50 Human Lung Cancer Epithelial A549” value [3] was 2.6 micrograms/ml. For the same compound, the “diameter of the zone of inhibition, Candida parasdosis ATCC 90018” value ([9]; 10 micrograms per disk, 35° C.) was “R”, the “concentration causing detectable lysis of human red blood cells” value (human red blood cells) was over 80 micrograms/ml and the “diameter of the zone of inhibition, Candida albicans ATCC 24433” value ([11]; 10 micrograms per disk, 35° C.) was “R”.
